SMILES | melting point [°C]
Nc1c(C(=O)O)ccnc1Br | 224 to 226
CCOc1ccc(S(=O)(=O)Cl)cn1 | 47 to 49
Nc1cccc(CS(N)(=O)=O)c1 | 144 to 146
O=c1[nH]c2ccc(C(F)(F)F)cc2c(=O)o1 | 269 to 271
NCc1c[nH]nn1 | 211 to 213
NNc1ncnc2nc[nH]c12 | 235 to 237
CC(C)(C)OC(=O)N1CCC(C(=O)NN)CC1 | 98 to 100
CC(C)C(Br)C(=O)NC1CCS(=O)(=O)C1 (stereo not drawn) | 139 to 141
O=C(O)c1ccc(CN2C(=O)CCC2=O)cc1 | 229 to 231
C1CCC(C2CCNCC2)CC1 | 73 to 75
CC(=O)c1cc2c(cc1O)OCO2 | 114 to 116
CC1(c2ccc([N+](=O)[O-])cc2)NC(=O)NC1=O (stereo not drawn) | 235 to 237
CN1CCCC[C@@H]1C(=O)O | 219 to 221
CC1CC(=O)NC1=O (stereo not drawn) | 61 to 63
Cc1cccc(Cn2[nH]ccc2=NC(=O)CCl)c1 | 88 to 90
Cc1cc(C(=O)O)ccc1NS(=O)(=O)C(F)(F)F | 203 to 205
Brc1ccc2c(c1)CCCCN2 | 52 to 54
CC(=O)Nc1cc(F)c(S(=O)(=O)Cl)cc1Cl | 163 to 165
O=C(NCCO)c1ccc(O)cc1 | 155 to 157
Cc1ccc(N2CC(C(=O)O)CCC2=O)cc1C (stereo not drawn) | 184 to 186
O=C(O)C(Br)C12CC3CC(CC(C3)C1)C2 (stereo not drawn) | 162 to 166
CCC(C)(C)NC(=O)C(Br)C(C)C (stereo not drawn) | 132 to 134
CCOC(=O)c1cnc2c(OC)cc(Cl)c(OC)c2c1Cl | 152 to 154
CC(=O)c1cncnc1 | 63 to 65
c1ccc(C2CNCCS2)cc1 (stereo not drawn) | 60 to 62
Cn1cc(S(=O)(=O)N2CCOCC2)cc1C(=O)O | 245 to 247
Cc1ccc(Cl)c(OCC(=O)O)c1 | 134 to 136

SMILES | melting point [°C]
CC(C)(C)c1ccc(C2(CN)CCCC2)cc1 | 62 to 64
O=C(O)CN1CCCCC1=O | 169 to 171
O=C(O)c1cccc(CS)c1 | 104 to 106
CC12CCC(CC1=NNC(=O)CCl)C2(C)C (stereo not drawn) | 185 to 187
Cn1ccnc1C(O)C(F)(F)F (stereo not drawn) | 135 to 137
Cn1ncnc1N | 180 to 182
Cc1cc2n(n1)C(=O)CC(=O)N2 | 219 to 221
O=C(NC1CCN(C(=O)CCl)CC1)c1ccccc1 | 155 to 157
CC1Cc2ccccc2N1C(=O)CO (stereo not drawn) | 75 to 77
CN1CCN(C)c2cc(N)ccc2C1=O | 188 to 190
O=C(c1ccsc1)N1CCNCC1 | 235 to 237
Fc1cc2nc[nH]c2cc1F | 159 to 161
c1ccc2c(c1)ncn2C1CCCNC1 (stereo not drawn) | 104 to 106
O=CC1=Cc2cc(Br)ccc2OC1 | 103 to 105
CC(C)COC(C)C(N)=NO (stereo not drawn) | 63 to 65
CC1CN(c2ccc(N)cc2)CC(C)O1 (stereo not drawn) | 73 to 75
CC(Cl)C(=O)Nc1ccc(Cl)c(C(F)(F)F)c1 (stereo not drawn) | 130 to 135
NNC(=O)C(=O)NCc1ccc(Cl)cc1 | 191 to 193
NC(=S)Cc1cccc(Cl)c1 | 105 to 107
CS(=O)(=O)N1CCCc2cc(C(=O)CCl)ccc21 | 118 to 120
O=C(O)c1ncccc1OCC(F)(F)F | 116 to 118
COc1cc(C=O)c([N+](=O)[O-])cc1OCC(F)F | 139 to 141
O=C1NCCc2c1ccc(Cl)c2Cl | 200 to 202
COc1cc(N)c(C(=O)O)c(OC)c1 | 106 to 108
CC(=O)OCc1ccc(S(=O)(=O)C(F)F)cc1 | 75 to 77
CC(C)(CN)S(=O)(=O)c1ccc(Br)cc1 | 74 to 76
O=C(O)c1ccc(CO)o1 | 164 to 166

SMILES | melting point [°C]
O=C(O)C1(c2ccc(Cl)c(Cl)c2)CCC1 | 116 to 118
Cc1cc(C)n2ncc(C(N)=NO)c2n1 | 227 to 229
CN(C)S(=O)(=O)c1ccc(C(=O)CBr)cc1 | 90 to 92
CC1(C(=O)O)CCCS1 (stereo not drawn) | 38 to 40
O=C1C(Br)CCN1c1ccc(Cl)c(F)c1 (stereo not drawn) | 94 to 96
CCNC(=O)CN1CCNCC1 | 83 to 85
OCc1nnc(S)n1C1CC1 | 154 to 156
Cc1cc([N+](=O)[O-])sc1Br | 37 to 39
CC1CC1C(=O)NN (stereo not drawn) | 85 to 87
CNS(=O)(=O)c1ccc(NCCOC)c(N)c1 | 111 to 113
CC(C)C(NC(=O)c1ccc(Cl)cc1)C(=O)O (stereo not drawn) | 197 to 199
CCN(CC)C(=O)c1sc2nc(CCl)[nH]c(=O)c2c1C | 174 to 176
Cc1cccc(C)c1NC(=O)CCCCl | 104 to 106
O=C(O)c1nccn2c(Br)cnc12 | 158 to 160
O=C(O)C=Cc1ccc(S(=O)(=O)N2CCOCC2)cc1 | 249 to 251
COC(=O)c1cc(C(=O)OC)[nH]n1 | 149 to 151
NCc1cc(C(N)=O)no1 | 149 to 151
CC(C)c1ccc(C=O)cc1[N+](=O)[O-] | 50 to 52
COc1cc(OC)cc(C(=O)NCC(=O)O)c1 | 91 to 93
Cn1cc(C=O)nn1 | 103 to 105
Nc1nc2cc(Cl)cc(Cl)c2o1 | 247 to 249
O=C(O)c1cc(N2CCOC2=O)ccc1F | 232 to 234
CC(C)Oc1ccc(S(=O)(=O)Cl)cc1Cl | 95 to 97
Cc1sc(-n2cccc2)c(C(=O)O)c1C | 156 to 158
CC(=O)NCc1ccc(C(=O)C(C)Cl)o1 (stereo not drawn) | 64 to 66
Cc1cc2ncn(CC3CO3)c2cc1C (stereo not drawn) | 119 to 121

Continued, values first:

melting point [°C] | SMILES
69 to 71 | Cc1nc(CN)oc1-c1ccc(Cl)cc1
171 to 173 | Cc1ccc(-c2ncc(C(=O)O)s2)c(C)c1
177 to 179 | CCc1ccc(-c2nn(-c3ccccc3C)cc2C(=O)O)cc1
183 to 185 | O=Cc1cnc(-c2ccc(Cl)cc2)nc1
255 to 257 | O=C(O)C1CCCN(C(=O)c2cccc3ccccc23)C1 (stereo not drawn)
102 to 104 | O=C(O)c1cc(Cl)ccc1Oc1ccc(F)cc1
99 to 101 | Nc1ccn(-c2nccs2)n1
174 to 176 | Cc1c(C(=O)O)cnn1-c1ccccn1
183 to 185 | N#CCc1ccc(Oc2ccc(C(=O)O)cc2)cc1
96 to 98 | CCOc1ccccc1Oc1ccccc1C(=O)O
190 to 192 | CCc1nc2ccccc2c(C(=O)O)c1C
< 17 | COc1ccc(Cn2nccc2N)cc1OC
245 to 247 | Cc1nn(Cc2ccc(Cl)cc2)c2sc(C(=O)O)cc12
83 to 85 | O=C(O)CCCn1nnc(-c2ccccc2)n1
66 to 68 | NCc1ccc(-c2cccnc2)cc1
46 to 48 | Cc1ncc2ccccn12
159 to 161 | Nc1ccc(S(=O)(=O)Nc2ccccc2Cl)cc1
185 to 187 | COC(=O)c1ccc(NC(=O)Oc2ccccc2)cc1
199 to 201 | NC(=S)C(NC(=O)c1ccccc1)C1CC1 (stereo not drawn)
57 to 59 | Cc1cnn(-c2ccc(N)cc2F)c1
225 to 227 | Nc1nc2ccc(S(=O)(=O)N3CCCC3)cc2s1

melting point [°C] | SMILES
47 to 49 | Cc1cc(C)cc(C(N)c2cccnc2)c1 (stereo not drawn)
165 to 167 | Nc1cc([N+](=O)[O-])ccc1Nc1cccc(C(F)(F)F)c1
141 to 143 | CC(C)c1noc(-c2ccccc2C(=O)O)n1
197 to 199 | N#Cc1cccnc1NCc1cccc(C(=O)O)c1
152 to 154 | CN(C(=O)c1ccc(Cl)cc1)c1ccc(N)cc1
90 to 92 | c1ccc(CCCc2nnn[nH]2)cc1
59 to 61 | CC(NC(=O)OC(C)(C)C)C(=O)Cc1ccccc1 (stereo not drawn)
147 to 149 | NC(=O)NCc1ccccc1F
109 to 111 | Fc1ccc(-c2ccn[nH]2)cc1Cl
185 to 187 | NC(=O)c1sc2nc(C3CC3)cc(-c3ccccc3)c2c1N
239 to 241 | Nc1nncc(-c2cc(F)ccc2F)n1
29 to 31 | COC(=O)CCCOc1ccccc1F
125 to 128 | Cc1ccc(-c2nc(S)n[nH]2)cc1
84 to 86 | CNC(=O)COc1ccc(C(C)O)cc1 (stereo not drawn)
173 to 175 | Nc1c(C(=O)c2cccs2)oc2ccccc12
196 to 198 | CC(C)(c1ccccc1)c1nnc(N)o1
223 to 225 | Cc1cccc(NS(=O)(=O)c2ccc(N)cc2)n1
63 to 65 | CC(C)Oc1ccc(CNC(=O)CCl)cc1
178 to 182 | CCOc1ccc(NC(=S)NN)cc1
111 to 113 | CC(O)c1nc2ccccc2n1C (stereo not drawn)
122 to 124 | CC(C)(C)NS(=O)(=O)c1ccccc1NN

melting point [°C] | SMILES
169 to 171 | CC(N)(C(=O)O)c1ccccc1 (stereo not drawn)
168 to 170 | Cc1ccc(CNC(=O)c2c[nH]nc2N)cc1
60 to 62 | Oc1ccc(OCC(F)(F)F)cc1
228 to 230 | O=C1COc2ccc(C(=O)/C=C/c3ccccc3)cc2N1
109 to 111 | O=C(O)c1c(Cl)cccc1Oc1ccc(Cl)cc1
196 to 198 | COc1ccc(CC2(C)NC(=O)NC2=O)cc1 (stereo not drawn)
99 to 101 | CC(C)c1nn(-c2ccc(Br)cc2)cc1C=O
84 to 86 | O=C(O)C(Sc1ccc(F)cc1)c1ccccc1 (stereo not drawn)
259 to 261 | Cc1nc(-c2ccc(N)cc2)cc(=O)[nH]1
113 to 115 | Cc1nc(-c2ccc(F)cc2)sc1C(C)O (stereo not drawn)
115 to 117 | Cc1ccccc1NC(=O)C1CCc2ccccc2N1 (stereo not drawn)
195 to 197 | Nc1nc(-c2ccc(Oc3ccccc3)cc2)cs1
147 to 149 | O=C(O)C(Oc1cccc(Cl)c1Cl)c1ccccc1 (stereo not drawn)
39 to 41 | COC(=O)CCc1ccc(N)cc1
117 to 119 | CC(=O)c1cccc(OCCOc2cccc(C(C)=O)c2)c1
179 to 181 | CNC(=O)c1cc(Oc2cccc(O)c2C)ccn1
186 to 188 | CCOc1cc(/C=C(\C(=O)O)c2ccccc2)ccc1O
189 to 191 | Nc1cccc(N2C(=O)c3ccccc3C2=O)c1
288 to 290 | O=C(O)c1c[nH]nc1-c1ccccc1F
155 to 157 | O=C(O)C1(Cc2nc3ccccc3s2)CCCC1
145 to 147 | Cc1cc(N)n(-c2cccc(Br)c2)n1
